Results reported in PMC12514245, “Impaired migration and lung invasion of human melanoma by a novel small molecule targeting the transmembrane domain of death receptor p75^NTR” (EMBO Molecular Medicine, 2025).
Values joined by “and” are separate entries in the source; they are usually repeats but may differ in a detail not shown here. Identical values can stand only once. “Also recorded” adds a separate entry of the source.

Tests used:
p75^NTR TMD = biological target: T1, p75^NTR TMD (Homo sapiens, UniProt P08138); assay: AraTM assay, wild-type p75NTR TMD (GFP/OD630); format: cell-based
T1 sequence (P08138 250-275 limits assumed): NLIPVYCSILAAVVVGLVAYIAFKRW

p75^NTR TMD P253G = biological target: T2, p75^NTR TMD P253G (Homo sapiens, UniProt P08138, P253G); assay: AraTM assay, P253G mutant p75NTR TMD; format: cell-based; settings: for GFP/OD630, Mean / GFP/OD630, individual replicates: P253G
T2 construct: Comparison of wild-type (WT) p75^NTR TMD and I252A, P253G and V254A mutants in the AraTM assay; expressed in transfected cells; host or cells: E. coli AS19 (LPS-negative)
T2 sequence (P08138 251-272 P253G limits assumed): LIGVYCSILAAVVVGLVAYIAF

A875 shp75 cells = assay: Wound healing cell motility assay, A875 shp75; format: cell-based, human
Procedure: For wound healing assay, cells were grown until confluency and subjected to a wound across the cell mono-layer. Cells were then incubated with serum-free media either with DMSO or a small molecule (with or without 5 µM Q_VD_poH) and imaged at specific time-points. Cell migration is reflected as fold change in wound area over time.

[1] = wt, compound 10 μM, Figure 5C-E
[2] = wt, compound 20 μM, Figure 5C-E
[3] = wt, compound 30 μM, Figure 5C-E
[4] = wt, compound 40 μM, Figure 5C-E

Cc1cccc(-c2cncc(Nc3ccc(Br)c(Cl)c3Cl)n2)c1C [Np75-4A22]
IC50 in the AraTM assay, compared with Div17E5 (p75^NTR TMD): improved IC50 compared to Div17E5 | GFP/OD630, Mean (p75^NTR TMD; compound 2 μM, Figure 5B): 0.98 | GFP/OD630, individual replicates (p75^NTR TMD; compound 2 μM, Figure 5B): 0.97 and 0.96 and 1.01 | GFP/OD630, Mean (p75^NTR TMD; compound 4 μM, Figure 5B): 0.58 | GFP/OD630, individual replicates (p75^NTR TMD; compound 4 μM, Figure 5B): 0.59 and 0.58 and 0.56 | GFP/OD630, Mean (p75^NTR TMD; compound 6 μM, Figure 5B): 0.46 | GFP/OD630, individual replicates (p75^NTR TMD; compound 6 μM, Figure 5B): 0.46 and 0.49 and 0.42 | GFP/OD630, Mean (p75^NTR TMD; compound 8 μM, Figure 5B): 0.41 | GFP/OD630, individual replicates (p75^NTR TMD; compound 8 μM, Figure 5B): 0.41 and 0.43 and 0.37 | GFP/OD630, Mean (p75^NTR TMD; compound 10 μM, Figure 5B): 0.39 | GFP/OD630, individual replicates (p75^NTR TMD; compound 10 μM, Figure 5B): 0.36 and 0.38 and 0.43 | activity in the AraTM assay (p75^NTR TMD; structure-activity comparison): better performance at low micromolar concentrations; also recorded: best compounds; also recorded: best compound in the 4A series | GFP/OD630, Mean (p75^NTR TMD; wt, compound 5 μM, Figure 5C-E): 0.78 | GFP/OD630, individual replicates (p75^NTR TMD; wt, compound 5 μM, Figure 5C-E): 0.78 and 0.81 and 0.74 | GFP/OD630, Mean (p75^NTR TMD; [1]): 0.57 | GFP/OD630, individual replicates (p75^NTR TMD; [1]): 0.53 and 0.48 and 0.68 | GFP/OD630, Mean (p75^NTR TMD; [2]): 0.49 | GFP/OD630, individual replicates (p75^NTR TMD; [2]): 0.48 and 0.44 and 0.56 | GFP/OD630, Mean (p75^NTR TMD; [3]): 0.34 | GFP/OD630, individual replicates (p75^NTR TMD; [3]): 0.46 and 0.29 and 0.27 | GFP/OD630, Mean (p75^NTR TMD; [4]): 0.32 | GFP/OD630, individual replicates (p75^NTR TMD; [4]): 0.31 and 0.34 and 0.30 | effect of Pro253 mutation on compound activity in AraTM assay (p75^NTR TMD P253G): unaffected | GFP/OD630, Mean (p75^NTR TMD P253G; compound 5 μM): 0.71 | GFP/OD630, individual replicates (p75^NTR TMD P253G; compound 5 μM): 0.58 and 0.64 and 0.9 | GFP/OD630, Mean (p75^NTR TMD P253G; compound 10 μM): 0.74 | GFP/OD630, individual replicates (p75^NTR TMD P253G; compound 10 μM): 0.6 and 0.87 and 0.74 | GFP/OD630, Mean (p75^NTR TMD P253G; compound 20 μM): 0.58 | GFP/OD630, individual replicates (p75^NTR TMD P253G; compound 20 μM): 0.43 and 0.66 (2×) | GFP/OD630, Mean (p75^NTR TMD P253G; compound 30 μM): 0.52 | GFP/OD630, individual replicates (p75^NTR TMD P253G; compound 30 μM): 0.72 and 0.32 and 0.53 | GFP/OD630, Mean (p75^NTR TMD P253G; compound 40 μM): 0.39 | GFP/OD630, individual replicates (p75^NTR TMD P253G; compound 40 μM): 0.36 (2×) and 0.44 | Wound area (Fold) (A875 shp75 cells; A875 shp75, 1uM, 0 h, Mean): 1.000 Fold | Wound area (Fold) (A875 shp75 cells; A875 shp75, 1uM, 0 h, n1): 0.845 Fold | Wound area (Fold) (A875 shp75 cells; A875 shp75, 1uM, 0 h, n2): 1.081 Fold | Wound area (Fold) (A875 shp75 cells; A875 shp75, 1uM, 0 h, n3): 1.074 Fold | Wound area (Fold) (A875 shp75 cells; A875 shp75, 1uM, 3 h, Mean): 0.931 Fold | Wound area (Fold) (A875 shp75 cells; A875 shp75, 1uM, 3 h, n1): 0.916 Fold | Wound area (Fold) (A875 shp75 cells; A875 shp75, 1uM, 3 h, n2): 0.940 Fold | Wound area (Fold) (A875 shp75 cells; A875 shp75, 1uM, 3 h, n3): 0.936 Fold | Wound area (Fold) (A875 shp75 cells; A875 shp75, 1uM, 6 h, Mean): 0.862 Fold | Wound area (Fold) (A875 shp75 cells; A875 shp75, 1uM, 6 h, n1): 0.849 Fold | Wound area (Fold) (A875 shp75 cells; A875 shp75, 1uM, 6 h, n2): 0.873 Fold | Wound area (Fold) (A875 shp75 cells; A875 shp75, 1uM, 6 h, n3): 0.864 Fold | Wound area (Fold) (A875 shp75 cells; A875 shp75, 1uM, 9 h, Mean): 0.807 Fold | Wound area (Fold) (A875 shp75 cells; A875 shp75, 1uM, 9 h, n1): 0.787 Fold | Wound area (Fold) (A875 shp75 cells; A875 shp75, 1uM, 9 h, n2): 0.829 Fold | Wound area (Fold) (A875 shp75 cells; A875 shp75, 1uM, 9 h, n3): 0.805 Fold | Wound area (Fold) (A875 shp75 cells; A875 shp75, 1uM, 12 h, Mean): 0.763 Fold | Wound area (Fold) (A875 shp75 cells; A875 shp75, 1uM, 12 h, n1): 0.742 Fold | Wound area (Fold) (A875 shp75 cells; A875 shp75, 1uM, 12 h, n2): 0.785 Fold | Wound area (Fold) (A875 shp75 cells; A875 shp75, 1uM, 12 h, n3): 0.763 Fold | Wound area (Fold) (A875 shp75 cells; A875 shp75, 1uM, 15 h, Mean): 0.718 Fold | Wound area (Fold) (A875 shp75 cells; A875 shp75, 1uM, 15 h, n1): 0.696 Fold | Wound area (Fold) (A875 shp75 cells; A875 shp75, 1uM, 15 h, n2): 0.752 Fold | Wound area (Fold) (A875 shp75 cells; A875 shp75, 1uM, 15 h, n3): 0.705 Fold | Wound area (Fold) (A875 shp75 cells; A875 shp75, 1uM, 18 h, Mean): 0.698 Fold | Wound area (Fold) (A875 shp75 cells; A875 shp75, 1uM, 18 h, n1): 0.664 Fold | Wound area (Fold) (A875 shp75 cells; A875 shp75, 1uM, 18 h, n2): 0.709 Fold | Wound area (Fold) (A875 shp75 cells; A875 shp75, 1uM, 18 h, n3): 0.721 Fold | Wound area (Fold) (A875 shp75 cells; A875 shp75, 1uM, 21 h, Mean): 0.669 Fold | Wound area (Fold) (A875 shp75 cells; A875 shp75, 1uM, 21 h, n1): 0.640 Fold | Wound area (Fold) (A875 shp75 cells; A875 shp75, 1uM, 21 h, n2): 0.695 Fold | Wound area (Fold) (A875 shp75 cells; A875 shp75, 1uM, 21 h, n3): 0.673 Fold | Wound area (Fold) (A875 shp75 cells; A875 shp75, 1uM, 24 h, Mean): 0.638 Fold | Wound area (Fold) (A875 shp75 cells; A875 shp75, 1uM, 24 h, n1): 0.601 Fold | Wound area (Fold) (A875 shp75 cells; A875 shp75, 1uM, 24 h, n2): 0.671 Fold | Wound area (Fold) (A875 shp75 cells; A875 shp75, 1uM, 24 h, n3): 0.643 Fold | Wound area (Fold) (A875 shp75 cells; A875 shp75, 2uM, 0 h, Mean): 1.000 Fold | Wound area (Fold) (A875 shp75 cells; A875 shp75, 2uM, 0 h, n1): 0.9754 Fold | Wound area (Fold) (A875 shp75 cells; A875 shp75, 2uM, 0 h, n2): 1.0649 Fold | Wound area (Fold) (A875 shp75 cells; A875 shp75, 2uM, 0 h, n3): 0.9597 Fold | Wound area (Fold) (A875 shp75 cells; A875 shp75, 2uM, 3 h, Mean): 0.910 Fold | Wound area (Fold) (A875 shp75 cells; A875 shp75, 2uM, 3 h, n1): 0.9076 Fold | Wound area (Fold) (A875 shp75 cells; A875 shp75, 2uM, 3 h, n2): 0.9176 Fold | Wound area (Fold) (A875 shp75 cells; A875 shp75, 2uM, 3 h, n3): 0.9063 Fold | Wound area (Fold) (A875 shp75 cells; A875 shp75, 2uM, 6 h, Mean): 0.853 Fold | Wound area (Fold) (A875 shp75 cells; A875 shp75, 2uM, 6 h, n1): 0.8581 Fold | Wound area (Fold) (A875 shp75 cells; A875 shp75, 2uM, 6 h, n2): 0.8655 Fold | Wound area (Fold) (A875 shp75 cells; A875 shp75, 2uM, 6 h, n3): 0.836 Fold | Wound area (Fold) (A875 shp75 cells; A875 shp75, 2uM, 9 h, Mean): 0.814 Fold | Wound area (Fold) (A875 shp75 cells; A875 shp75, 2uM, 9 h, n1): 0.821 Fold | Wound area (Fold) (A875 shp75 cells; A875 shp75, 2uM, 9 h, n2): 0.8359 Fold | Wound area (Fold) (A875 shp75 cells; A875 shp75, 2uM, 9 h, n3): 0.7843 Fold | Wound area (Fold) (A875 shp75 cells; A875 shp75, 2uM, 12 h, Mean): 0.777 Fold | Wound area (Fold) (A875 shp75 cells; A875 shp75, 2uM, 12 h, n1): 0.789 Fold | Wound area (Fold) (A875 shp75 cells; A875 shp75, 2uM, 12 h, n2): 0.7939 Fold | Wound area (Fold) (A875 shp75 cells; A875 shp75, 2uM, 12 h, n3): 0.7491 Fold | Wound area (Fold) (A875 shp75 cells; A875 shp75, 2uM, 15 h, Mean): 0.752 Fold | Wound area (Fold) (A875 shp75 cells; A875 shp75, 2uM, 15 h, n1): 0.7699 Fold | Wound area (Fold) (A875 shp75 cells; A875 shp75, 2uM, 15 h, n2): 0.7822 Fold | Wound area (Fold) (A875 shp75 cells; A875 shp75, 2uM, 15 h, n3): 0.7049 Fold | Wound area (Fold) (A875 shp75 cells; A875 shp75, 2uM, 18 h, Mean): 0.727 Fold | Wound area (Fold) (A875 shp75 cells; A875 shp75, 2uM, 18 h, n1): 0.7451 Fold | Wound area (Fold) (A875 shp75 cells; A875 shp75, 2uM, 18 h, n2): 0.762 Fold | Wound area (Fold) (A875 shp75 cells; A875 shp75, 2uM, 18 h, n3): 0.6733 Fold | Wound area (Fold) (A875 shp75 cells; A875 shp75, 2uM, 21 h, Mean): 0.692 Fold | Wound area (Fold) (A875 shp75 cells; A875 shp75, 2uM, 21 h, n1): 0.7162 Fold | Wound area (Fold) (A875 shp75 cells; A875 shp75, 2uM, 21 h, n2): 0.7095 Fold | Wound area (Fold) (A875 shp75 cells; A875 shp75, 2uM, 21 h, n3): 0.6489 Fold | Wound area (Fold) (A875 shp75 cells; A875 shp75, 2uM, 24 h, Mean): 0.665 Fold | Wound area (Fold) (A875 shp75 cells; A875 shp75, 2uM, 24 h, n1): 0.7012 Fold | Wound area (Fold) (A875 shp75 cells; A875 shp75, 2uM, 24 h, n2): 0.6688 Fold | Wound area (Fold) (A875 shp75 cells; A875 shp75, 2uM, 24 h, n3): 0.6256 Fold
